Assay results as given in US20070072815A1, “Methods and kits to increase the efficiency of oligonucleotide-directed nucleic acid sequence alteration” (priority 2004, published 2007).
“Also recorded” adds a separate entry of the source.

Tests used:
DNA of DLD-1-1 cells = test: Pulsed-field gel electrophoresis of DNA damage (double strand breaks); format: cell-based; settings: 0.75 μM bleomycin or 0.2 μM MMS, 24 hours
Protocol: The cells are released by trypsinization and melted in the agarose inserts. The agarose inserts are incubated in 0.5M EDTA—1% N-laurosylsarcosine—proteinase K (1 mg/ml) at 50° C. for 48 hrs and then washed four times in TE buffer prior to loading on a 1% agarose gel (Pulse-Field Certified Agarose, Bio-Rad, Hercules, Calif.) and DNA separation by pulsed-field gel electrophoresis is carried out for 24 hrs (Bio-Rad, 120° field angle, 60 to 240s switch time, 4 V/cm). The gel is subsequently stained with ethidium bromide and analyzed with AlphaImager™ 2200. (Alpha Innotech Corp., San Leandro, Calif.).
The effects of MMS and bleomycin on oligonucleotide-directed gene alteration are determined as follows. DLD-1-1 cells are seeded in 100 mm dishes at 2×10^6 cells per plate and immediately treated with 0.2 μM MMS or 0.75 μM bleomycin. The cells are then grown for 24 hours, until approximately 50% confluent, and washed twice with PBS. A portion of each population of cells is removed for DNA analysis by pulsed-field electrophoresis, as described in Example 1. The correcting oligo EGFP/72NT (10 μg) is then added and the cells are electroporated as in Example 3. Cells are then analyzed to determine the percentage of cells with corrected eGFP genes as described in Example 3.

[1] = test system: mutant eGFP gene in DLD-1-1 cells; test: eGFP gene correction (oligonucleotide-directed sequence alteration) in DLD-1-1 cells, FACS readout; format: cell-based; settings: 0.2 μM MMS 24 hours before electroporation, 10 μg oligo
DLD-1-1 cells [2] = test: Cell viability / cell death by propidium iodide FACS
Protocol: Flow cytometry analysis: eGFP fluorescence of corrected cells is measured by a Becton Dickinson FACSCalibur™ flow cytometer (Becton Dickinson, Rutherford, N.J.). Cells are harvested 48 hrs after electroporation and resuspended in FACS buffer (0.5% BSA, 2 mM EDTA, 2 μg/ml propidium iodide in PBS). More specifically, the program is set for the appropriate cell size (forward scatter versus side scatter) and the population of single-cells is gated for analysis. Using the negative control (minus PI, minus GFP) the background fluorescence was set by positioning the cells in the 10^1 decade of the dot plot by adjusting the voltage for FL1 (GFP) and FL2 (PI). The composition is then set for multi-fluorochrome experiments using a GFP control sample containing no PI and increasing the compensation to bring the signal toward the FL1 parameter. Finally, the last control, PI and no GFP is used to increase the compensation to bring the signal toward the FL2 parameter. Samples of 50,000 cells each are analyzed and those cells being GFP positive and PI negative are scored as corrected cells.
For cells that were not previously treated with caffeine, caffeine is added to the media to a final concentration of 4 mM in the 60 mM dish immediately following electroporation (the “recovery phase”). For cells that were pre-treated with caffeine, there is no addition of caffeine during the recovery phase. After 24 hrs of recovery, the media is changed and caffeine (4 mM final concentration) is added back to the culture. After 48 hrs of recovery, the samples are read by FACS: eGFP fluorescence reflects gene alteration (correction), and propidium iodide (PI) staining reflects cellular viability.

[3] = test system: mutant eGFP gene in DLD-1-1 cells; test: eGFP gene correction (oligonucleotide-directed sequence alteration) in DLD-1-1 cells, FACS readout; format: cell-based; settings: for correction efficiency: cells synchronized by double thymidine block, then 10 mM thymidine 24 hours
Protocol: Cell line and culture conditions: DLD-1 cells are obtained from ATCC (American Type Cell Culture, Manassas, Va.). DLD-1 integrated clone 1 (DLD-1-1) is obtained by integration of the vector pEGFP-N3 containing a single point mutation (TAG) in the eGFP gene, as described in copending U.S. patent application Ser. No. 10/986,418, filed Nov. 10, 2004 (“Mammalian Cell Lines for Detecting, Monitoring, and Optimizing Oligonucleotide-Mediated Chromosomal Sequence Alteration”). Cells are grown in RPMI 1640 medium with 2 mM glutamine, 4.5 g/L glucose, 10 mM HEPES, 1 mM sodium pyruvate and supplemented with 10% FBS. Cells are maintained at 5% CO2, 37° C. and under selection in 200 μg/ml G418 (Gibco, Invitrogen Co., Carlsbad, Calif.).
eGFP gene correction: Cells grown in complete medium supplemented with 10% FBS are trypsinized and harvested by centrifugation. The cell pellet is resuspended in serum-free medium at a density of 1×10^6 cells/100 μl and transferred to a 4 mm gap cuvette (Fisher Scientific, Pittsburgh, Pa.). The oligonucleotide is then added at a concentration of 4 μM and the cells are electroporated (LV, 250V, 13 msec, 2 pulses, 1 second interval) using a BTX ECM830 apparatus (BTX, Holliston, Mass.). The cells are then transferred to a 60 mm dish containing fresh medium supplemented with 10% FBS and incubated for 48 hrs at 37° C. before harvesting for FACS analysis.
The percentage of converted cells in a whole population is then calculated by CellQuest™ (Becton Dickinson) and GFP/PI programs. The correction efficiency is determined by dividing the number of eGFP positive cells by the number of cells analyzed in each experiment (usually 50,000 cells). Each clone is tested three times to determine the standard deviation of the correction efficiency, with standard deviation calculated using Microsoft Excel.
The experimental strategy involves the introduction of oligonucleotides into DLD-1-clone 1 cells by electroporation followed by phenotypic readout of the corrected eGFP gene, 48 hours later. The correcting oligonucleotide (EGFP3S/72NT) is 72 bases in length (72-mer), complementary to the non-transcribed strand of the mutant eGFP gene but designed to create a single mismatch in the third base of codon 67 (see FIG. 1A). It directs conversion of a TAG→TAC codon which enables phenotypic expression of eGFP, which can be detected by FACS. FIG. 1B outlines the sequence of the target gene, the 72-mer and a nonspecific 74-mer used as a control.
Oligonucleotide-Directed Sequence Alteration: The resulting synchronized populations of cells, and asynchronous controls, are grown in complete medium supplemented with 10% FBS and trypsinzed and harvested by centrifugation at 1500 rpm for 5 minutes. The cell pellet is resuspended in fresh serum-free medium at a density of 2×10^6 cells/100 μl. The entire cell suspension is mixed with 20 μg of EGFP/72NT and transferred into a 4 mm gap cuvette (Fisher Scientific, Pittsburgh, Pa., USA) followed by electroporation with two 250V pulses, each 13 ms in duration, with one second between pulses, unipolar.
Cells are incubated at room temperature for 30 min. […] Frequency of converted cells are calculated by CellQuest™ and GFP/PI programs.
Double Thymidine Block: Cells are synchronized in G1 or at the G1/S border by a double thymidine block. Twenty-four hours prior to the addition of any agent (HU, etc.), cells are plated at a density of 0.5×10^6 cells per 100 mm dish, followed by incubation in 2 mM thymidine (Sigma) for 16 hrs, washed and released in fresh medium for 10 hrs, then incubated in 2 mM thymidine for an additional 15 hrs.
FACS is then used to analyze 50,000 cells from each population to determine the percentage of cells expressing functional eGFP, as described in Example 1.

DLD-1-1 cells [4] = test: Cell cycle analysis (DNA content by FACS), cells in S phase; format: cell-based
Protocol: (§1) For cell cycle analysis, 1×10^6 cells are plated 24 hrs before the treatment with drugs and after 24 hrs of treatment, cells are trypsinized, resuspended in 300 μl cold PBS and fixed by adding 700 μl cold ethanol. Cells are then resuspended in 1 ml of PBS containing 500 µg/ml RNaseA and […] propidium iodide and analyzed for DNA content.
The effect of cell cycle on the efficiency of ODSA is assessed by synchronizing a population of DLD-1-1 cells with mimosine, which arrests cells in early S phase, and serum starvation. Cells are seeded at a density of 0.8×10^6 per 100 mm dish, attached for 20 hours and then cultured in RMPI-1640 medium containing 0.2% fetal bovine serum (FBS). These cells are grown for 48 hours followed by treatment with 0.1 mM mimosine (Sigma, St. Louis, Mo., USA) for 20 hours. Cell are washed twice with PBS and released at various times into fresh medium complemented with 10% FBS before electroporation. Cells are rinsed once with PBS, trypsinized and harvested by centrifugation and resuspended in PBS containing 10 μg/ml propidium iodide, 0.03% Triton-100 and 1 mg/ml RNase. Cells are incubated at room temperature for 1 hour before the measurement of DNA content by FACSCalibur™ flow cytometer. The percentage of cells at various stages of the cell cycle is determined by ModFit L™ software (Verity Software House, Inc., Topsham, Me., USA).
(§2) The resulting cells are then either analyzed by FACS, or the percentage of cells in S phase is determined by BrdU incorporation. FIG. 8 presents the results of both sets of experiments.

DLD-1-1 cells [5] = test: BrdU incorporation (actively replicating forks); format: cell-based; settings: 24 hour treatment; 500 μM ddC, ddI or AraC (FIG. 17B)
Protocol: as §1, §2
As stated above, the lack of stimulation observed in cells treated with AraC could be explained by the reduced number of cells passing through S phase or the absence of actively replicating forks. If true, we might predict that a rise in the gene repair frequency would appear if the cells are released from the AraC block and replication forks are allowed to restart prior to the electroporation of the oligonucleotide. We test this prediction by treating the cells with AraC for 24 hrs and then releasing them by washing out the drug at specific times. We measure the level of BrdU incorporation at the time of electroporation and evaluate the frequency of correction 48 hrs later.

[6] = test system: α-galactosidase A (GLA) activity in Fabry's cell line DMN-1; test: GLA activity in Fabry's cells after ODSA; format: cell-based, human; settings: cells synchronized by DTB, 500 μM ddC
Excerpt: (§3) Cell line DMN-1, a human fibroblast cell line derived from a human patient with Fabry's disease, is obtained from the National Institutes of Health (NIH). These cells are used to measure the efficiency of correction of a mutant allele of α-galactosidase A (GLA) using methods of the present invention. The specific disease-causing mutation in the Fabry's cell line used herein is A143P, caused by a G→C mutation in the gene. See Branton et al., Medicine (Baltimore) (2002) 81(2): 122-38.
(§4) All four oligonucleotides are used to effect ODSA substantially as described in Example 1, with the exception that cells are transfected with oligonucleotides, rather than electroporated. Oligos are added at 5 μg, 10 μg or 30 μg per reaction. After ODSA is performed, cells are cultured and assayed for GLA activity according to the method of Brady, as described in Medin et al., Proc. Natl. Acad. Sci. (USA) (1996) 93:7917-22, the disclosure of which is incorporated herein by reference in its entirety. The GLA activity is used as a measure of gene correction by comparing the activities in treated versus untreated cultures. The correction efficiency is subsequently confirmed by sequencing of the locus of mutation in a number of treated cells.
[…] Unlike the experiments involving correction of eGFP in DLD-1-1 cells described in Example 1, however, certain of the agents (VPA, caffeine, TSA) in the experiments in this example are not added before transfection, but are instead added only after transfection, during the recovery period.
(§5) The means of introducing oligonucleotide into the target cells also differs from previous examples, with transfection in the presence of the transfection enhancing agent FuGENE™ 6 (FG) (Roche Diagnostics Corp., Indianapolis, Ind., USA) being used rather than electroporation. Each transfection reaction includes 100 μl of target cells and 12 μl of FG unless otherwise indicated, despite the fact that FG is not explicitly listed for each datapoint in the relevant figures. Otherwise the procedures used in the DLD-1-1 experiments and the Fabry's experiments are similar.
The results of a further series of experiments are shown at FIG. 15D, where the data are presented as GLA activity as nanomolar (nM) concentration of the product of the GLA assay generated per hour per unit protein concentration (as are the data in FIGS. D and E).

[7] = test system: mutant allele (A143P) of α-galactosidase A (GLA) in Fabry's cell line DMN-1; test: Correction efficiency of mutant GLA allele in Fabry's cells; format: cell-based, human; settings: VP16 1-50 μM; thymidine 2-50 mM; with or without correcting oligonucleotide
Excerpt: as §3, §4
As in the previous examples, target cells are treated with HU, VP16 or CPT prior to transfection with the correcting oligonucleotide. Unlike the experiments involving correction of eGFP in DLD-1-1 cells described in Example 1, however, certain of the agents (VPA, caffeine, TSA) in the experiments in this example are not added before transfection, but are instead added only after transfection, during the recovery period.
as §5
The same experiment as described with respect to FIG. 15A is repeated in the presence of various agents and treatments to evaluate whether embodiments of the present invention can increase gene alteration (in this example, correction) efficiency. […] Bars represent the correction efficiencies observed in the various experiments. Unless otherwise indicated, all experiments include 10 μg of 49T/gg in addition to any other agent used to treat the cells.

COS(C)(=O)=O [MMS, methyl methanesulfonate]
DNA damage (DNA of DLD-1-1 cells): effect DNA damage
effect on correction efficiency [1]: more than doubles the correction efficiency; also recorded: doubles correction efficiency
effect on cell death (DLD-1-1 cells [2]; 0.2 μM MMS): Cell death is not increased

Nc1ccn([C@H]2CC[C@@H](CO)O2)c(=O)n1 [ddC, 2′3′-dideoxycytidine]
correction levels ([3]; cells treated with ddC alone (FIG. 20)): 2.9%
effect on correction efficiency (increase) ([3]; ddC 24 hrs before electroporation, 500-750 μM): more than two-fold; also recorded: approximately two- to three-fold; also recorded: dose-dependent increase
cells in S phase (DLD-1-1 cells [4]; 24 hour treatment, 500 μM ddC, ddI or AraC (FIG. 17A)): 70%
BrdU uptake (cells actively incorporating DNA bases) (DLD-1-1 cells [5]): 71.8%
increase of GLA activity compared with untreated cells [6]: approximately two-fold; also recorded: doubles DLA activity
toxicity (DLD-1-1 cells [2]; ddC levels higher than 750 μM (data not shown)): cellular toxicity

Cc1cn([C@H]2C[C@H](O)[C@@H](CO)O2)c(=O)[nH]c1=O [thymidine]
correction efficiency in synchronized cells relative to asynchronous cells ([3]; 1 mM HU or 10 mM thymidine, DTB synchronized vs asynchronous): over seven times
effect of synchronization by double thymidine block on correction efficiency ([3]; 2 mM thymidine 16 hrs, release 10 hrs, 2 mM thymidine 15 hrs, no other agent): increases correction efficiency
effect on correction efficiency in asynchronous cells ([3]; 10 mM thymidine 24 hours): does not enhance correction efficiency
correction efficiency [3]: 7.5%
correction efficiency ([3]; listed as Thymidine): over 7%
proportion of cells in S phase (DLD-1-1 cells [4]; after double thymidine block): 1.5%
effect on correction efficiency [7]: little effect on correction efficiency

bleomycin
DNA damage (DNA of DLD-1-1 cells): effect DNA damage
